The source made the active and inactive calls.

Test [1] has as its target T1, Cysteine protease ATG4B (Homo sapiens, UniProt Q9Y4P1).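 Further: Fluorescence-based dose-response confirmation assay measuring inhibition of ATG4B activity.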
T1 sequence (Q9Y4P1 whole entry): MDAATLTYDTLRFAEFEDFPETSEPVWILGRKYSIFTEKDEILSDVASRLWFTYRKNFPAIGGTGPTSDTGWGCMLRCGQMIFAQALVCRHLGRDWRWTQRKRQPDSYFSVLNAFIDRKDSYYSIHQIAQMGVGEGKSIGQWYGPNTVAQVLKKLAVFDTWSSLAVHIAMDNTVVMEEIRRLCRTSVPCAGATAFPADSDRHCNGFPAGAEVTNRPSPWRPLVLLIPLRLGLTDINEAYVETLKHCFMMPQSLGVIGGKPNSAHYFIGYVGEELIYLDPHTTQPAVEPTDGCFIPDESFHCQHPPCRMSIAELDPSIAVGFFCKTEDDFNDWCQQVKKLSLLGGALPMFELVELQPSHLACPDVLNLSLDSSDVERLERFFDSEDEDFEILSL
The class given is functional.

The target in test [2] is Dual specificity tyrosine-phosphorylation-regulated kinase 1A (Rattus norvegicus, UniProt Q63470). It is filed as biochemical, Homo sapiens.
The subject of test [3] is HeLa. The test can be described thus: Cytotoxicity counterscreen assay for transcriptional activators of heat shock protein 70 (Hsp70). [Related pubchem assays: 1203, 1252 ]. It is filed as functional. Conditions: Homo sapiens.
Test [4] can be described thus: Shn3 3'UTR reporter inhibitors, dose response, cell-based, Clone20 osteoblasts, firefly luciferase, cherry-picked (AID 624132).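 Further: firefly luciferase luminescence from reporter carrying the Shn3 3'UTR in osteoblasts.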 The class given is functional.
Test [5] concerns the target Serine/threonine-protein phosphatase PP1-alpha catalytic subunit (Homo sapiens, UniProt P62136). The test can be described thus: PP1 phosphatase inhibitors, dose response, biochemical, fluorescence (AID 2394).
For test [6], the target named is T2, Beta-galactosidase (Escherichia coli, UniProt Q8VNN2). The test can be described thus: PubChem AID 485352. The class given is functional.
T2 sequence (Q8VNN2 whole entry): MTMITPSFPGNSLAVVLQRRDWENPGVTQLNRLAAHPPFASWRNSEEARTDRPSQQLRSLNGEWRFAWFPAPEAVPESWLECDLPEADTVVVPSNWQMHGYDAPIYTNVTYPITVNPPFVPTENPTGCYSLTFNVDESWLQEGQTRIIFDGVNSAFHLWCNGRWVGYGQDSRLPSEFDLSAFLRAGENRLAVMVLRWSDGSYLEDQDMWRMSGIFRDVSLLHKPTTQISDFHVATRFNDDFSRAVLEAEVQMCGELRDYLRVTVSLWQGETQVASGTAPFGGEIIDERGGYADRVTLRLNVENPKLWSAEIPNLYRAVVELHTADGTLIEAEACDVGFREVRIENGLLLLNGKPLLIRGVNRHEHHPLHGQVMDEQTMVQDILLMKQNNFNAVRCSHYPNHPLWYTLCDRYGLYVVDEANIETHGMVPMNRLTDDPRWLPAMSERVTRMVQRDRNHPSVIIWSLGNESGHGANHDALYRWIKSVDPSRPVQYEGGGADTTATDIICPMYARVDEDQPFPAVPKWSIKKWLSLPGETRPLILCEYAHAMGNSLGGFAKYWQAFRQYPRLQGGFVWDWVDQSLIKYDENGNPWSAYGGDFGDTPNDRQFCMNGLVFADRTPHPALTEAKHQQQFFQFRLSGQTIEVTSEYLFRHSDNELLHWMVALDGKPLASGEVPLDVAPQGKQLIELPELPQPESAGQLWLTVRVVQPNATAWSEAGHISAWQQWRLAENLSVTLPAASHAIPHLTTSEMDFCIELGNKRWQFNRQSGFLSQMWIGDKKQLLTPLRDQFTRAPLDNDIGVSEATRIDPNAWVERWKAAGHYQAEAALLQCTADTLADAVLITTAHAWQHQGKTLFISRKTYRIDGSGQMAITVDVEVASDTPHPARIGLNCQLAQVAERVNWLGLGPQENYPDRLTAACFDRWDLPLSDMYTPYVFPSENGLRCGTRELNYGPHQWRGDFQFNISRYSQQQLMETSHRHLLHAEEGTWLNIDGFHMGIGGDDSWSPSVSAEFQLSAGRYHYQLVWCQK
The target of test [7] is T3, Mannose-6-phosphate isomerase (Homo sapiens, UniProt P34949).
T3 sequence (P34949 whole entry): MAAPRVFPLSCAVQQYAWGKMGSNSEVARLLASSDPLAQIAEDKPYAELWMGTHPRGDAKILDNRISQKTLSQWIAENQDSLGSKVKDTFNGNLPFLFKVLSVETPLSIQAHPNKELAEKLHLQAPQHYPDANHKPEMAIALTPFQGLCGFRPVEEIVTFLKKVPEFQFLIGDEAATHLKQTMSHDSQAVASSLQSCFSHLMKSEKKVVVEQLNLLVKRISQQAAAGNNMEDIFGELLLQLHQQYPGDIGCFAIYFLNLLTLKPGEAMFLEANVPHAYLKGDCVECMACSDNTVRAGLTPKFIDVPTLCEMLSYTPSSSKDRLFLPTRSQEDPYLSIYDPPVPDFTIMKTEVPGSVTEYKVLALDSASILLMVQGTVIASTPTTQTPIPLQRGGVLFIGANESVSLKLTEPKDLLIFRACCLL
The test can be described thus: human PMI inhibitors, high substrate, primary screen, biochemical, fluorescence intensity, high mannose 6-phosphate (AID 1220).

Test [8] has as its target RNA-editing ligase 1, mitochondrial (Trypanosoma brucei brucei, UniProt P86926). The test can be described thus: TbREL1 ligase inhibitors, dose response, biochemical, fluorescence, Trypanosoma brucei (AID 1117295). The class given is functional.
Test [9] can be described thus: HEp-2 cell cytotoxicity, dose response, cytotoxicity control for RSV inhibitor project, HTS (AID 2410). The class given is functional. Conditions: human respiratory syncytial virus.
In test [10] the target is T4, Sentrin-specific protease 8 (Homo sapiens, UniProt Q96LD8).
T4 sequence (Q96LD8 whole entry): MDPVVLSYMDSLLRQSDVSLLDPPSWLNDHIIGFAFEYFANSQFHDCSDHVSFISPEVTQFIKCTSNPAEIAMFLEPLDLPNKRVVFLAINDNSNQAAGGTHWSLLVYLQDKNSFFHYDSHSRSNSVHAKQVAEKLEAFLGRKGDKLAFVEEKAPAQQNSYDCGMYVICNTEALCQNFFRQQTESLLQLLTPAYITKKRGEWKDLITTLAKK
The test can be described thus: SENP8 protease inhibitors, SAR follow-up, biochemical, luminescence (AID 504501). It is filed as functional.

The test system of test [11] is Vero. The test can be described thus: cells. It is filed as functional, cell-based. Conditions: Chlorocebus sabaeus.
Test [12] concerns Vero. The test can be described thus: cells. The class given is functional. Conditions: Chlorocebus sabaeus.
Test [13] has as its target T5, Sentrin-specific protease 7 (Homo sapiens, UniProt Q9BQF6).
T5 sequence (Q9BQF6 whole entry): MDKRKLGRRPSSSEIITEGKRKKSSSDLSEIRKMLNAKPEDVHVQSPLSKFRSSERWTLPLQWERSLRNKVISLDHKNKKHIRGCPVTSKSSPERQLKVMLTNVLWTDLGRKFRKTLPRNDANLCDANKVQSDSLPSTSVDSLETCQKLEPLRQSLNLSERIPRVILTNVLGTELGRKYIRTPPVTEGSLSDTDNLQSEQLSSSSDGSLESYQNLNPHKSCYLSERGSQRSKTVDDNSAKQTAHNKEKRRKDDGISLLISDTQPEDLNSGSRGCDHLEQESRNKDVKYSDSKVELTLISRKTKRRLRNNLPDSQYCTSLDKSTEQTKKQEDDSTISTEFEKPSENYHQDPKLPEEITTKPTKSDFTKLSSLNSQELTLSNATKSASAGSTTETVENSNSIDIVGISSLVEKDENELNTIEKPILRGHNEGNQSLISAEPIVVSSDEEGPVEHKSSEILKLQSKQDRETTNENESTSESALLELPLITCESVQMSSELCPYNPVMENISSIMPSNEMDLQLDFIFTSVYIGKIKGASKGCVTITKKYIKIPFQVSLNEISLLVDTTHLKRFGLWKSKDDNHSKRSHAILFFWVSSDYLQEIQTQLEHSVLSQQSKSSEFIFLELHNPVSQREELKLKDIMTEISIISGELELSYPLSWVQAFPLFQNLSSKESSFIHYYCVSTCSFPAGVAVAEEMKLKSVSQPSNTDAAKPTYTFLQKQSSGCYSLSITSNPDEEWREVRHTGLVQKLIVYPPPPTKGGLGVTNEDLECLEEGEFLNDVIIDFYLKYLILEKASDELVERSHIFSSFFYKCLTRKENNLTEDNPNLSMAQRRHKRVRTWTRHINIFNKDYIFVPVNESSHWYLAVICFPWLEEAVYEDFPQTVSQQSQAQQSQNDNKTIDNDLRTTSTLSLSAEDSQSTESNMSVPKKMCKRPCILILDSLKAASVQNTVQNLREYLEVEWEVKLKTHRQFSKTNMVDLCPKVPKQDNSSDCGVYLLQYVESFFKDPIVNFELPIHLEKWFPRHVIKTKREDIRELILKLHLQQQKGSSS
The experiment in a line: SENP7 protease inhibitors, SAR follow-up, biochemical, luminescence (AID 504497). It is filed as functional.

The nature of test [14]: cells.
Test [15] concerns the target T2, Beta-galactosidase. The test can be described thus: beta-galactosidase enzyme inhibitors and activators, dose response, artefact control for CCR6 antagonist project, biochemical, E. coli enzyme, set 3 (AID 504712). The class given is functional.

Sequence of RNA-editing ligase 1, mitochondrial (P86926 whole entry): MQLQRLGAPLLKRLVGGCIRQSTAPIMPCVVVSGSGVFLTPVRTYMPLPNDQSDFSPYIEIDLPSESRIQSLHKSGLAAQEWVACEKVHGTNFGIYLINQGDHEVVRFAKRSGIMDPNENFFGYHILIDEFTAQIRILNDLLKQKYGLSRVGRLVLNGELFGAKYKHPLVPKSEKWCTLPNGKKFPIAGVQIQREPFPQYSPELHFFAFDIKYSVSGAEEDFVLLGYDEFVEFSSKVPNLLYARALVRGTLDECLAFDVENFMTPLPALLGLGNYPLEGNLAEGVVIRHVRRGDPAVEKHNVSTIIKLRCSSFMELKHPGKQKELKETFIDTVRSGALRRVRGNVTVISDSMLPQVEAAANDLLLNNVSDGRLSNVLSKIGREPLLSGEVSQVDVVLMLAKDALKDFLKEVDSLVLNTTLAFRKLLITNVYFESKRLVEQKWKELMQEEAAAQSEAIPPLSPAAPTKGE
Sequence of Serine/threonine-protein phosphatase PP1-alpha catalytic subunit (P62136 whole entry): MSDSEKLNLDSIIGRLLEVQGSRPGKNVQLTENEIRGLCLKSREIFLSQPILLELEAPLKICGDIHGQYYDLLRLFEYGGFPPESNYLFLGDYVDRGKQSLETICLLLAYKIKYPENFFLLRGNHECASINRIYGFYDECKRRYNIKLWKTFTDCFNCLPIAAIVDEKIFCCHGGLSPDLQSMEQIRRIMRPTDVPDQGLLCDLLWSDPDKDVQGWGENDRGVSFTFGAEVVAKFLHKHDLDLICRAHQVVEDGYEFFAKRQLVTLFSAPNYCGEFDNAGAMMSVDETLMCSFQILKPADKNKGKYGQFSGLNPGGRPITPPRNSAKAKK

`Cc1ccccc1NC1=C/C(=N\S(=O)(=O)c2ccc(C(=O)O)cc2)c2ccccc2C1=O`: the IC50 in test [1] is 5.85 µM (active). Further, the concentration at half-maximal activity (AC50) in test [2] was 4.11 µM (active).

With `COC(=O)C[C@]1(C(=O)OC)CN(C#N)N(c2ccc(Cl)cc2)C12c1ccccc1-c1ccccc12`, in test [3], the 50% cytotoxic concentration (CC50) is 3.55 µM (active). In addition, the AC50 in test [4] was 1.88 µM (active).

With `CCCCn1c(NC(=O)c2ccco2)c(C(=O)OCC)c2nc3ccccc3nc21`, the IC50 in [5] was 62.5 µM (not active); in test [7], > 50 µM (not active); in [8], 21.8 µM (inactive). In test [6], the EC50 is > 40 µM (inactive).

In the case of `O=C(Nc1ccc(C#Cc2ccccc2)cc1)C1CC1`, the 50% cytotoxic concentration (CC50) in [9] is 26.9 µM (active); in test [12], > 25 µM (active). In addition, the IC50 in test [10] was > 99 µM (inactive); in test [11], > 12.5 µM (active); in test [13], 3.28 µM (active); in test [14], 7.09 µM (active).

As to `Cc1ccc(NC2=C/C(=N/S(=O)(=O)c3cccs3)c3ccccc3C2=O)cc1`, the IC50 in test [15] is 50.8 µM (inactive).

For the origin of these results see ChEMBL document CHEMBL1201862, “PubChem BioAssay data set” (2004).
